Measurements published in ChEMBL document CHEMBL1137465, “Cytostatic evaluations of nucleoside analogs related to unnatural base pairs for a genetic expansion system” (Bioorg Med Chem Lett, 2007).

Legend:
HT-1080 [1] = assay: Cytostatic activity against human HT1080 cells at 500 uM by MTT assay; assay type: functional
[2] = Cytostatic activity against human WI38 cells at 500 uM by MTT assay; assay type: ADME, cell-based, WI-38
HT-1080 [3] = assay: Cytostatic activity against human HT1080 cells assessed as relative percent survival at 25 uM by MTT assay; assay type: functional; conditions: read-out: Survival
HT-1080 [4] = assay: Cytostatic activity against human HT1080 cells by MTT assay; assay type: functional, cell-based
[5] = Cytostatic activity against human WI38 cells assessed as relative percent survival at 5 uM by MTT assay; assay type: ADME, cell-based, WI-38; conditions: read-out: Survival
CCRF-CEM [6] = assay: Cytostatic activity against human CCRFCEM cells by MTT assay; assay type: functional, cell-based
[7] = Cytostatic activity against human WI38 cells MTT assay; assay type: ADME, cell-based; conditions: WI-38
WI-38 = assay: Cytostatic activity against human WI38 cells assessed as relative percent survival at 25 uM by MTT assay; assay type: functional; conditions: read-out: Survival
HT-1080 [8] = assay: Cytostatic activity against human HT1080 cells assessed as relative percent survival at 5 uM by MTT assay; assay type: functional; conditions: read-out: Survival
CCRF-CEM [9] = assay: Cytostatic activity against human CCRFCEM cells at 500 uM by MTT assay; assay type: functional

| Structure (SMILES) | IC50 (HT-1080 [4]) | IC50 (CCRF-CEM [6]) | inhibition at 500 µM (HT-1080 [1]) | inhibition at 500 µM [2] | IC50 [7] | inhibition at 500 µM (CCRF-CEM [9]) | further results |
| --- | --- | --- | --- | --- | --- | --- | --- |
| O=c1[nH]cccc1[C@H]1C[C@H](O)[C@@H](CO)O1 |  |  | < 50% | < 50% |  |  |  |
| Nc1nc(-c2cccs2)c2ncn([C@H]3C[C@H](O)[C@@H](CO)O3)c2n1 | 38 µM | 340 µM |  |  | 500 µM |  | viability at 25 µM (HT-1080 [3]): 69%; viability at 5 µM [5]: 92%; viability at 25 µM (WI-38): 91%; viability at 5 µM (HT-1080 [8]): 97% |
| OC[C@H]1O[C@@H](n2cnc3c(-c4cccs4)ncnc32)[C@H](O)[C@@H]1O | 0.33 µM | 2.3 µM |  |  | 5.7 µM |  |  |
| O=Cc1cccn1[C@@H]1O[C@H](CO)[C@@H](O)[C@H]1O |  |  | < 50% | < 50% |  | < 50% |  |
| O=c1[nH]cccc1[C@@H]1O[C@H](CO)[C@@H](O)[C@H]1O |  |  | < 50% | < 50% |  |  |  |
| OC[C@H]1O[C@@H](n2cnc3c(-c4ccco4)ncnc32)C[C@@H]1O | 330 µM |  |  | < 50% |  | < 50% |  |
| O=Cc1cccn1[C@H]1C[C@H](O)[C@@H](CO)O1 |  |  | < 50% | < 50% |  | < 50% |  |

Now from value to compound, other results behind:

| IC50 (HT-1080 [4]) | IC50 (CCRF-CEM [6]) | Structure (SMILES) | inhibition at 500 µM (HT-1080 [1]) | inhibition at 500 µM [2] | IC50 [7] | inhibition at 500 µM (CCRF-CEM [9]) | further results |
| --- | --- | --- | --- | --- | --- | --- | --- |
| 88 µM |  | Nc1nc(-c2cccs2)c2ncn([C@@H]3O[C@H](CO)[C@@H](O)[C@H]3O)c2n1 |  | < 50% |  | < 50% |  |
| 56 µM | 120 µM | OC[C@H]1O[C@@H](n2cnc3c(-c4cccs4)ccnc32)C[C@@H]1O |  |  | 190 µM |  |  |
| 190 µM | 230 µM | OC[C@H]1O[C@@H](n2cnc3c(-c4cccs4)ccnc32)[C@H](O)[C@@H]1O |  |  | 310 µM |  |  |
| 95 µM | 420 µM | OC[C@H]1O[C@@H](n2cnc3c(-c4cccs4)ncnc32)C[C@@H]1O |  | < 50% |  |  |  |
| 290 µM |  | Nc1nc(-c2ccco2)c2ncn([C@H]3C[C@H](O)[C@@H](CO)O3)c2n1 |  | < 50% |  | < 50% |  |
| 0.18 µM | 0.29 µM | O=c1[nH]c(=O)n([C@H]2C[C@H](O)[C@@H](CO)O2)cc1F [FLOXURIDINE] |  |  | 500 µM |  |  |
